One assay deals with PDE10 (Homo sapiens (Human), UniProt Q9Y233). Put plainly: LE_PDE10A inhibition assay (SPA, cAMP hydrolysis). It is filed as biochemical. The settings on record: 3H-cAMP at Km 25 nM, read-out: IC50. As for the experimental part:
LE_PDE10A Inhibition Assay:
The PDE10 inhibition assay in 384-well plates was conducted to identify substances for the inhibition of cyclic nucleotide hydrolysis by the PDE10 enzyme. […] PDE10 activity was measured using Scintillation Proximity Assay (SPA)-based methods. PDE10 catalyses the hydrolysis of the intracellular messenger adenosine […] (cAMP) to the non-cyclic adenosine 5′-monophosphate (AMP). The SPA assay was based upon the selective interaction of the tritiated product with yttrium oxide LEADseeker beads.
The assay buffer contained 25 mM HEPES pH 7.4, 2.5 mM Magnesium Chloride and 0.1% BSA. […] The reaction was terminated by adding 6 μL of 5 mg/mL of yttrium oxide LEADseeker beads. The beads were allowed to settle for 3 hours before plates were read in the LEEDSeaker for 6 minutes. The measured signal ccould be converted to activity relative to an […] control (100%). IC50 values were calculated by using in-house data software and IC50 values were generated by nonlinear regression analysis. (Bristol-Myers Squibb Company, Wallingford, Conn.).
PDE10, sequence (Q9Y233 whole entry): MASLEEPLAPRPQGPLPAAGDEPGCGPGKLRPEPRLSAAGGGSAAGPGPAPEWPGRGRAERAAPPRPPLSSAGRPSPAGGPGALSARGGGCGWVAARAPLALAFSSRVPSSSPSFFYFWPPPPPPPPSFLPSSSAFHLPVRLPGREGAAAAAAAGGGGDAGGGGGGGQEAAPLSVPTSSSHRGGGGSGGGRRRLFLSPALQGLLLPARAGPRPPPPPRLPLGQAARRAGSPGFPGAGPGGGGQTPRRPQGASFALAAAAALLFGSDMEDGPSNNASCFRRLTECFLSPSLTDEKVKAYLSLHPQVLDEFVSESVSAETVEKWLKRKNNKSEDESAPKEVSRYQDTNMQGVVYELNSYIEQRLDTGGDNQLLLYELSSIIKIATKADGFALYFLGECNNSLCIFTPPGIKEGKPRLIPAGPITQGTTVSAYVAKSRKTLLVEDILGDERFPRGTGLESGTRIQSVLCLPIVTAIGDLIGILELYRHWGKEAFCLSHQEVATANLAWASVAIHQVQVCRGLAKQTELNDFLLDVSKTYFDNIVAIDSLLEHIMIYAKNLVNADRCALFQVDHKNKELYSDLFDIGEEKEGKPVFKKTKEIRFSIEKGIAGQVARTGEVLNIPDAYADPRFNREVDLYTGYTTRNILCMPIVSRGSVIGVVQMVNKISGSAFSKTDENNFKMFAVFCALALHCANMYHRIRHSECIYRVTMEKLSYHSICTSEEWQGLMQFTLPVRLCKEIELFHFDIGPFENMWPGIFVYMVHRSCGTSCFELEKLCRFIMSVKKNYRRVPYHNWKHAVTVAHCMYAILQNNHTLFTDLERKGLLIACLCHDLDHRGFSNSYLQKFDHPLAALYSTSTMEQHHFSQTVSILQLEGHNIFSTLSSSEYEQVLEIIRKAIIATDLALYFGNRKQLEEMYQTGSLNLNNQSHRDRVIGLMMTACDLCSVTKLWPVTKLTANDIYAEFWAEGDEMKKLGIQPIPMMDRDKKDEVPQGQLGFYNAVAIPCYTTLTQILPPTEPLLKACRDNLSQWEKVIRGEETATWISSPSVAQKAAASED
The IC50 is the concentration at which inhibition is half-maximal. `Cc1ncc(C)n2nc(C3CC3c3nc(-c4ccccc4)cn3C)nc12` (racemic) [5,8-Dimethyl-2-(2-(1-methyl-4-phenyl-1H-imidazol-2-yl)cyclopropyl)-[1,2,4]triazolo[1,5-a]pyrazine]: the 50% inhibitory concentration (IC50) was found to be 1.79 nM.
Same read-out and setting: for `Cc1cc(C)n2nc(C3CC3c3nc(-c4ccccc4)cn3C)nc2n1` (stereo not drawn) [5,7-Dimethyl-2-(2-(1-methyl-4-phenyl-1H-imidazol-2-yl)cyclopropyl)-[1,2,4]-triazolo[1,5-a]pyrimidine] the value was 14.5 nM; for `CCCn1cc(-c2ccccc2)nc1C1CC1c1nc2c(C)ncc(C)n2n1` (stereo not drawn) [5,8-dimethyl-2-(2-(4-phenyl-1-propyl-1H-imidazol-2-yl)cyclopropyl)-[1,2,4]triazolo[1,5-a]pyrazine], 6.65 nM.

Staying with this assay, now noted: 3H-cAMP at Km 25 nM, read-out: Range (IC50).
Consider `Cc1ncc(C)n2nc(C3CC3c3nc(-c4ccccc4)cn3C)nc12` (single isomer, unassigned) [drawing 16, 5,8-dimethyl-2-(2-(1-methyl-4-phenyl-1H-imidazol-2-yl)cyclopropyl)-[1,2,4]triazolo[1,5-a]pyrazine], for which the IC50 fell in the range of 0.8 to 5 nM.
On the same count and under the same terms, for `Cc1ncc(C)n2nc(C3CC3c3nc(-c4ccccc4)cn3C)nc12` (single isomer, unassigned) [drawing 17, 5,8-dimethyl-2-(2-(1-methyl-4-phenyl-1H-imidazol-2-yl)cyclopropyl)-[1,2,4]triazolo[1,5-a]pyrazine] the value was 10.1 to 40 nM; for `CCn1cc(-c2ccccc2)nc1C1CC1c1nc2c(C)ncc(C)n2n1` (stereo not drawn) [2-(2-(1-Ethyl-4-phenyl-1H-imidazol-2-yl)cyclopropyl)-5,8-dimethyl-[1,2,4]triazolo[1,5-a]pyrazine], 5.1 to 10 nM.
